Reference: PMC7993833, “EDP-938, a novel nucleoprotein inhibitor of respiratory syncytial virus, demonstrates potent antiviral activities in vitro and in a non-human primate model” (PLoS Pathogens, 2021)
Entries after “also recorded” stand apart in the source; their conditions may differ.

What was measured:
RSV-A Long [1] = test: RT-qPCR assay, RSV-A Long in primary HBECs; format: cell-based; settings: human respiratory syncytial virus, primary HBEC
RSV-A M37 = test: RT-qPCR assay, RSV-A M37 in HEp-2 cells; format: cell-based; settings: human respiratory syncytial virus
Protocol: (§1) HEp-2, Vero, and BHK were seeded at 8,000 cells per well (cpw) in growth medium (Dulbecco’s Modified Eagle Medium (DMEM) with 1% GlutaMAX, 1% Penicillin/Streptomycin (P/S), 1% Non-Essential Amino Acids (NEAA), 10% Fetal Bovine Serum (FBS)) or (Minimum Essential Medium (MEM) with 10% FBS, 1% NEAA, 1% P/S) or (Eagle’s Minimum Essential Medium with L-Glutamine, with 10% FBS, 1% P/S) respectively. A549 seeded at 3,000 cpw in F-12K Kaighn’s Modification nutrient mixture with 10% FBS, 1% NEAA, 1% P/S. Cells seeded at time of infection in 96-well plates, final well volume 100μL. Compounds suspended in DMSO, serially diluted and added to wells at 0.5% final DMSO concentration. Viral stocks stabilized with 25% sucrose, previously titered using plaque assay, were added at desired MOI. Sucrose added to cells-only control wells to match percent added with virus. Unless otherwise noted, RSV-A strains were tested at 0.1 MOI and incubated for 5 days in a 37°C, 5% CO2 humidified incubator, and RSV-B at 0.5 MOI for 6 days. Cytopathic effect (CPE) determined using ATPlite (Perkin Elmer) measured with Envision luminometer. For RT-qPCR, RNA was extracted from whole well using Ambion RNAqueous-96 Automated Kit, and RT-qPCR run using Applied Biosystems TaqMan RNA-to-CT 1-Step Kit. […] All EC50s were calculated using the XLFit four-parameter logistic model 200 in Microsoft Excel.

RSV-B VR-955 [2] = test: RT-qPCR assay, RSV-B VR-955 in A549 cells; format: cell-based; settings: human respiratory syncytial virus
Protocol: as §1

[3] = test system: RSV-B VR-955 EDP-938 resistant populations; test: Susceptibility of EDP-938 resistant RSV-B VR-955 populations; format: cell-based, respiratory syncytial virus
RSV-B VR-955 [4] = test: RT-qPCR assay, RSV-B VR-955 in HEp-2 cells; format: cell-based; settings: human respiratory syncytial virus
Protocol: as §1

RSV-A Long [5] = test: In vitro combination study (CPE, Loewe additivity, CalcuSyn); format: cell-based, respiratory syncytial virus
Protocol: The combination effect of EDP-938 with other RSV inhibitors of different mechanisms/targets was investigated in vitro. RSV-A Long infected HEp-2 cells were treated with various concentrations of EDP-938 either alone or in combination with the fusion inhibitor GS-5806, non-nucleoside L polymerase inhibitor AZ-27, nucleoside inhibitor ALS-8112 [38], ribavirin, or palivizumab. The combination of two compounds always led to a greater inhibition than a single agent alone.
To determine whether the effect of the combination was synergistic, additive or antagonistic, the data were analyzed by the Loewe additivity model using Calcusyn software, which gave a Combination Index (CI) value at various effective concentrations of the compounds. […] As an experimental control, adding EDP-938 to itself was additive. For details see S4 Table.
As described above with 8,000 HEp-2 cpw, 0.1 MOI RSV-A Long, 5-day endpoint, and CPE readout. Compounds added in serial 1.3-fold 6-point dilutions across both X- and Y-axes of plate. Plates run in quadruplicate with one uninfected plate for cytotoxicity. Combination indexes calculated using Loewe additivity model using CalcuSyn software from Biosoft.

RSV-A Long [6] = test: RT-qPCR assay, RSV-A Long in primary neonatal lamb bronchial epithelial cells; format: cell-based; settings: human respiratory syncytial virus, Epithelial cell
RSV-A Long [7] = test: RT-qPCR viral load assay, RSV-A Long in HEp-2 cells; format: cell-based; settings: human respiratory syncytial virus, HEp-2, RT-qPCR
RSV-B VR-955 [8] = test: CPE assay, RSV-B VR-955 in A549 cells; format: cell-based; settings: human respiratory syncytial virus
Protocol: as §1

RSV-A2 = test: CPE assay, RSV-A2 in HEp-2 cells; format: cell-based; settings: human respiratory syncytial virus
Protocol: as §1

HEp-2 cells = test: Cytotoxicity (ATPlite) in HEp-2 cells; format: cell-based, human; settings: at up to 50 μM, 3 days
Protocol: (§2) HEp-2, A549, and CHO cells were seeded at 3,000 cpw in their respective growth medium. CHO growth medium used was RPMI medium 1640 with 10% FBS, 1% P/S, 1% GlutaMAX. HEK-293 cells seeded at 10,000 cpw in DMEM growth medium. Undifferentiated HBECs were seeded in collagen-coated 96-well plates at 7,500 cpw in appropriate growth medium. Compound added and incubated for 3 days (4 days for HBECs) as described above. Plates read with ATPlite and CC50 calculated as EC50s as described above. SI = CC50/EC50 within a cell line.

[9] = Cytotoxicity (ATPlite) in CHO cells; format: cell-based; settings: Chinese hamster, read-out: half-maximal cytotoxic concentration (CC50)
Protocol: as §2

[10] = 144 h, RSV-A Long MOI 0.1, 6 days
[11] = 144 h, RSV-B VR-955 MOI 0.5, 6 days

For O=C1Nc2ccccc2C(c2ccccc2)=N[C@@H]1Nc1nnc(-c2ncc(C(F)(F)F)cc2N2CCOCC2)o1 [EDP-938], the EC50 (RSV-A Long [1]; [10]) was 21 ± 17 nM, the EC90 (RSV-A Long [1]; RSV-A Long) was 29 ± 23 nM and the EC50 (RSV-A M37) was 54 ± 5 nM. The EC90 (RSV-A M37) was 85 ± 21 nM, the EC50 (RSV-B VR-955 [2]) was 83 ± 38 nM and the EC90 (RSV-B VR-955 [2]) was 170 ± 53 nM. For the same compound, the “EC50 Fold Change vs. WT” value ([3]; RSV-B VR-955 Population 1, N: M109K, L139Q (dual WT/mutant population)) was 42 fold, the “EC50 Fold Change vs. WT” value ([3]; RSV-B VR-955 Population 2, N: M109T) was 6.6 fold and the “EC50 Fold Change vs. WT” value ([3]; RSV-B VR-955 Wild-Type) was 1 fold. The EC50 (RSV-B VR-955 [4]; [11]) was 110 ± 22 nM, the EC90 (RSV-B VR-955 [4]; RSV-B VR-955) was 140 ± 24 nM and the “combination effect (Combination Index)” value (RSV-A Long [5]; EDP-938 added to itself, CI 0.9–1.1 additivity, <0.9 synergy, >1.1 antagonism) was “additive; also recorded: additivity”. The “combination effect (Combination Index)” value (RSV-A Long [5]; EDP-938 combined with ALS-8112, AZ-27, GS-5806 or palivizumab) was “moderate levels of synergy”, the “combination effect (Combination Index)” value (RSV-A Long [5]; EDP-938 combined with ribavirin) was “additivity” and the EC50 (RSV-A Long [6]; [10]) was > 800 nM. The EC90 (RSV-A Long [6]; RSV-A Long) was > 800 nM, the EC50 (RSV-A Long [7]; 120 h, RSV-A Long MOI 0.1, 5 days, read-out: EC50) was 89 ± 16 nM and the EC90 (RSV-A Long [7]; RSV-A Long) was 91 ± 62 nM. The EC50 (RSV-B VR-955 [8]; [11]) was 72 ± 9 nM, the EC90 (RSV-B VR-955 [8]; RSV-B VR-955) was 223 ± 90 nM and the EC50 (RSV-A2) was 28 ± 4 nM. The EC90 (RSV-A2) was 40 ± 3 nM, the cytotoxicity (HEp-2 cells) was “no significant cytotoxicity” and the CC50 at 3 days [9] was ~27000 nM.
